Results reported in patent publication US10870647B2, “Imidazopyridine derivative, method for preparing same, and pharmaceutical composition containing same as active ingredient for preventing or treating cancer” (DAEGU-GYEONGBUK MEDICAL INNOVATION FOUNDATION, priority 2016, dated 2020).

What was measured:
Experiment in all cases: Kinase selectivity, scanMAX Kinase assay panel (DiscoverX), % control at 1 uM
Type in all cases: binding
[1] = molecular target: T1, scanMAX Kinase assay panel (Homo sapiens, UniProt P21709); settings: EPHA1; 1 uM; read-out: Percent Control (%)
T1 construct: purchased DiscoverX
T1 sequence (P21709 26-976): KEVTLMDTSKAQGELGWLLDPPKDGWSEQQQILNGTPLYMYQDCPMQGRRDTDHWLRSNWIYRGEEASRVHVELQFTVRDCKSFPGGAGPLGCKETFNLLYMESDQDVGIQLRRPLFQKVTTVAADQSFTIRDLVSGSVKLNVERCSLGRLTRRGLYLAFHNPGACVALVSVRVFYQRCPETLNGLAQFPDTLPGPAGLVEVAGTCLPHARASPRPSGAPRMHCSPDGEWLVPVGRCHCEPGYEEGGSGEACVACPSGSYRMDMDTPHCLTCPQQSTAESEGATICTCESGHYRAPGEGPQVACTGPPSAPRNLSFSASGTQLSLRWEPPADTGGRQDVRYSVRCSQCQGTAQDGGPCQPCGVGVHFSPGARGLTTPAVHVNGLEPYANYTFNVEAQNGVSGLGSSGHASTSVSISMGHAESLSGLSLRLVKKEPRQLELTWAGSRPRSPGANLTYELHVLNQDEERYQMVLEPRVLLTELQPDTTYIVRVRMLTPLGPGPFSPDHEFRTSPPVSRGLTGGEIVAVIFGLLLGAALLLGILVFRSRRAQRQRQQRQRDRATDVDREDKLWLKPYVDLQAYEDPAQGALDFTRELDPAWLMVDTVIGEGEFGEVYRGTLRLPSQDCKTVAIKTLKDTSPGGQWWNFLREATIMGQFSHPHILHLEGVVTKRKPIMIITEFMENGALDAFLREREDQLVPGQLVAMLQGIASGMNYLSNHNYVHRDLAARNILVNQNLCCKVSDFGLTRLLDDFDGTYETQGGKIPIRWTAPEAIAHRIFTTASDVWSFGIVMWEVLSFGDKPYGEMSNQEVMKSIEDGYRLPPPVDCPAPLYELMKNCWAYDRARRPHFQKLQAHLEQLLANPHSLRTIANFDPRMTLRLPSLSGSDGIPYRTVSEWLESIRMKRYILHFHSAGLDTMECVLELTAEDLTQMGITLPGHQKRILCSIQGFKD
Outline: (§1)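 Single-point screen at 1 uM compound in DMSO. Lower % control means stronger inhibition, with the cutoff for activity set at <35%.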

[2] = molecular target: T2, scanMAX Kinase assay panel (Homo sapiens, UniProt Q59H18); settings: TNNI3K; 1 uM; read-out: Percent Control (%)
T2 construct: purchased DiscoverX
T2 sequence (Q59H18 1-835): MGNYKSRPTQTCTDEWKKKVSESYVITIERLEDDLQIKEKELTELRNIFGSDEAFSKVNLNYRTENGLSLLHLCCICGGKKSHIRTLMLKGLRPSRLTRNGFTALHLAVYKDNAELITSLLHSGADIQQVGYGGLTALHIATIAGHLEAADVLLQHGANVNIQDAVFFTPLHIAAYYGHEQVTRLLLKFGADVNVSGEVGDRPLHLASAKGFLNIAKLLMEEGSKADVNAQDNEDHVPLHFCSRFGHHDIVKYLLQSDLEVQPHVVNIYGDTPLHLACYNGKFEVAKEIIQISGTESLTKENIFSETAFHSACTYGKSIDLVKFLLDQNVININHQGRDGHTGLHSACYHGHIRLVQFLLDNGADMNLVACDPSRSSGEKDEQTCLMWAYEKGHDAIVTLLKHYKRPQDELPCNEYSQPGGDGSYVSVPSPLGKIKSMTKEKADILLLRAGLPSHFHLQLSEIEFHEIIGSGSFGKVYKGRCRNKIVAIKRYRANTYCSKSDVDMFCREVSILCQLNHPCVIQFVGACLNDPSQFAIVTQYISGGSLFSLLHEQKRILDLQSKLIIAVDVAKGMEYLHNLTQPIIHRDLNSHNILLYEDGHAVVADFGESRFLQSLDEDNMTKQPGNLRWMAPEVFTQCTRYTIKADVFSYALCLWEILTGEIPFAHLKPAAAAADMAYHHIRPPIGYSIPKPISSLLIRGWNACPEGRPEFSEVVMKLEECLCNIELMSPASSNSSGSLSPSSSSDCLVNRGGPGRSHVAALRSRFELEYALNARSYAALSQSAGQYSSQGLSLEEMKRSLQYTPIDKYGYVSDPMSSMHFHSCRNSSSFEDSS
Outline: as §1

[3] = molecular target: T3, scanMAX Kinase assay panel (Homo sapiens, UniProt Q8IVW4); settings: CDKL3; 1 uM; read-out: Percent Control (%)
T3 construct: purchased DiscoverX
T3 sequence (Q8IVW4 whole entry): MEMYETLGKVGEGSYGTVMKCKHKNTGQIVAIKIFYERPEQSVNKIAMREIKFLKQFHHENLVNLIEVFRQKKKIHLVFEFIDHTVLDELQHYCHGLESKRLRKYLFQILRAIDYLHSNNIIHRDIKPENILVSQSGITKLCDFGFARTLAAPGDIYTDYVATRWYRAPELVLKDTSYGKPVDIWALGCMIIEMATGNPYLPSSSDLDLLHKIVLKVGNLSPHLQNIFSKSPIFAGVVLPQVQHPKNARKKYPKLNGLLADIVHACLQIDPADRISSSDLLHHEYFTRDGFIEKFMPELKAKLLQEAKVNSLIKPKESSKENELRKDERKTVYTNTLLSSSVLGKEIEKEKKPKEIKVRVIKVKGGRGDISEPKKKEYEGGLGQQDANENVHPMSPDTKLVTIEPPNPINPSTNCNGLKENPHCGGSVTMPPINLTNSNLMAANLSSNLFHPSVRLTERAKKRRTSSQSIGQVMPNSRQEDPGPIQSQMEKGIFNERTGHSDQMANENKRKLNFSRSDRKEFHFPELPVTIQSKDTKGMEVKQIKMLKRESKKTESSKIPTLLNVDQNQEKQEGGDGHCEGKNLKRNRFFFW
Outline: as §1

Cc1ccc(NC(=O)C2(C(=O)Nc3ccc(F)cc3)CC2)cc1C#Cc1cnc2c(Nc3cnn(C(C)C)c3)cccn12 [Example 78]
remaining binding at 1 µM [1]: 69% | remaining binding at 1 µM [2]: 93% | remaining binding at 1 µM [3]: 100%

Cc1cn(-c2cc(NC(=O)c3ccc(C)c(C#Cc4cnc5c(Nc6cnn(C)c6)cccn45)c3)cc(C(F)(F)F)c2)cn1 [Example 12, 4-methyl-N-(3-(4-methyl-1H-imidazol-1-yl)-5-(trifluoromethyl)phenyl)-3-((8-((1-methyl-1H-pyrazol-4-yl)amino)imidazo[1,2-a]pyridin-3-yl)ethynyl)benzamide]
remaining binding at 1 µM [1]: 8% | remaining binding at 1 µM [2]: 25% | remaining binding at 1 µM [3]: 53%

Cc1ccc(C(=O)Nc2ccc(CN3CCN(C)CC3)c(C(F)(F)F)c2)cc1C#Cc1cnc2c(Nc3cnn(C)c3)cccn12 [Example 1, 4-methyl-3-((8-((1-methyl-1H-pyrazol-4-yl)amino)imidazo[1,2-a]pyridin-3-yl)ethynyl)-N-(4-((4-methylpiperazin-1-yl)methyl)-3-(trifluoromethyl)phenyl)benzamide]
remaining binding at 1 µM [1]: 2% | remaining binding at 1 µM [2]: 0% | remaining binding at 1 µM [3]: 1%
